Laboratory results as given in article PMC4594923, “Food Polyphenols Fail to Cause a Biologically Relevant Reduction of COX-2 Activity” (PLoS ONE, 2015).
“Also recorded” adds a separate entry of the source. Marks after values point to notes of the source that are not given here.

Assays:
[1] = system: arachidonic acid (AA) cascade; assay: liver tissue oxylipin/PG levels in LPS induced sepsis in mice; assay type: in vivo, C57BL/6N mice; settings: liver tissue 24 h after LPS treatment;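 note: male C57BL/6N mice pretreated i.p. with polyphenols at 100 mg/kg bw or vehicle before LPS, liver oxylipins measured by LC-MS after solid-phase extraction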
Source text: Twelve week old male C57BL/6N mice (Charles River, Sulzfeld, Germany) were used for all experiments. C57BL/6 male mice (H2^b, 11–13 weeks of age) were obtained from Charles River (Sulzfeld, Germany). Animals were cared for in accordance with the institution’s guidelines for experimental animals and with the guidelines of the American Physiological Society. […] Mice were monitored closely and if they appeared compromised (i.e. inactivity, no intake of food or water) after compound or LPS injection the experiment was terminated.
Oxylipin levels were analyzed in plasma and tissues by LC-MS following SPE extraction of 200 μl plasma or tissue homogenate (50 mg) on Chromabond C18 ec cartridges (Machery-Nagel, Düren, Germany) [19].
(§1) GraphPad Prism 5.0 (GraphPad Software, San Diego, USA) was used for data analysis, the fitting of dose response curves and calculation of the IC50 values. Statistical differences were determined by Dunnetts test (LPS vs. other groups).

ovine recombinant COX–1 = molecular target: T1, ovine recombinant COX–1 (Ovis aries, UniProt P05979); assay: cell-free COX–1 enzyme assay (PGE2 formation, LC-MS); assay type: biochemical; parameters: purchased Cayman Chemicals/ Biomol, Hamburg, Germany
T1 sequence (P05979 25-600): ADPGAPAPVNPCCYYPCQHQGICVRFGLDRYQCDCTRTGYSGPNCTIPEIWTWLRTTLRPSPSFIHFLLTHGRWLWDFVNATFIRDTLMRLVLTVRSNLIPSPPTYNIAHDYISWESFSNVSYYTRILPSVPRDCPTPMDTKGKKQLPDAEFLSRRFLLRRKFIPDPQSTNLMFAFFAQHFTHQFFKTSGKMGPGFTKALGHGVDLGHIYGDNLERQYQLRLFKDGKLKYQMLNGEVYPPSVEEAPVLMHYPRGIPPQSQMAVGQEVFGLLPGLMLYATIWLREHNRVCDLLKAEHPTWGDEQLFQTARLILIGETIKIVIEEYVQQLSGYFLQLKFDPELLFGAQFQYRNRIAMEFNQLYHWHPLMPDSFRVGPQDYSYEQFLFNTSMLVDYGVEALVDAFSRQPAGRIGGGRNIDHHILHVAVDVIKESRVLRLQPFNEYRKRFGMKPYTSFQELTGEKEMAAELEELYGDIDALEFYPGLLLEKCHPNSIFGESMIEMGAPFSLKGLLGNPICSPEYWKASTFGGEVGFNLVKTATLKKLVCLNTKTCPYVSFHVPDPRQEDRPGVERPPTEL
Procedure: The in vitro assays were performed as described [6, 16, 18] and COX metabolites were quantified by LC-MS [18].
Primary human monocytes were freshly isolated from human blood. Blood was collected from healthy human subjects after written informed consent was obtained. […] After 24 h, the supernatant was sampled for LC-MS and cells were collected for the COX–2 expression analysis by Western Blotting.
as §1

Oc1ccc(/C=C/c2cc(O)cc3c2[C@@H](c2cc(O)cc(O)c2)[C@H](c2ccc(O)cc2)O3)cc1 [ε-Viniferin, ε-viniferin] was tested, and the “4,5-DiHDPE concentration” value ([1]; mean) was 20 nM, the 4-HDHA concentration ([1]; mean) was 6.8 nM and the “5(6)-EpETrE concentration” value ([1]; mean) was 45 nM. For the same molecule, the “5,6-DiHETE concentration” value ([1]; mean) was under 0.30 nM, the “5,6-DiHETrE concentration” value ([1]; mean) was 1.9 nM and the 5-HEPE concentration ([1]; mean) was 1.2 nM. The 5-HETE concentration ([1]; mean) was 1.2 nM, the 5-iPF2α concentration ([1]; mean) was 2.3^‡ nM and the 5-oxo-ETE concentration ([1]; mean) was 14 nM. The 6-keto-PGF1α concentration ([1]; mean) was 29 nM, the “7,8-DiHDPE concentration” value ([1]; mean) was 1.9 nM and the 7-HDHA concentration ([1]; mean) was 1.7 nM. For the same molecule, the “8(9)-EpETE concentration” value ([1]; mean) was 1.5 nM, the “8(9)-EpETrE concentration” value ([1]; mean) was 9.8 nM and the “8,9-DiHETE concentration” value ([1]; mean) was 1.2 nM. For the same molecule, the “8,9-DiHETrE concentration” value ([1]; mean) was 4.4 nM, the “8,15-DiHETE concentration” value ([1]; mean) was under 0.80 nM and the 8-HDHA concentration ([1]; mean) was 9.0 nM. It also gave a 8-HEPE concentration ([1]; mean) of under 0.60 nM, a 8-HETE concentration ([1]; mean) of 4.2 nM and a 8-iPF2α concentration ([1]; mean) of under 0.10 nM. The “9(10)-EpODE concentration” value ([1]; mean) was 9.2 nM, the “9(10)-EpOME concentration” value ([1]; mean) was 84 nM and the “9(10)-Epoxystearic acid concentration” value ([1]; mean) was 66 nM. For the same molecule, the “9,10,13-TriHOME concentration” value ([1]; mean) was 16 nM, the “9,10-DiHODE concentration” value ([1]; mean) was 3.9 nM and the “9,10-DiHOME concentration” value ([1]; mean) was 43^* nM. For the same molecule, the “9,10-Dihydroxystearic acid concentration” value ([1]; mean) was 170 nM, the “9,12,13-TriHOME concentration” value ([1]; mean) was 110 nM and the 9-HETE concentration ([1]; mean) was 2.9 nM. For the same molecule, the 9-HODE concentration ([1]; mean) was 250 nM, the 9-HOTrE concentration ([1]; mean) was 5.0 nM and the 9-oxo-ODE concentration ([1]; mean) was 53 nM. The “10(11)-EpDPE concentration” value ([1]; mean) was 15 nM, the “10,11-DiHDPE concentration” value ([1]; mean) was 2.2^† nM and the 10-HDHA concentration ([1]; mean) was 2.2 nM. The “11(12)-EpETE concentration” value ([1]; mean) was 2.0 nM, the “11(12)-EpETrE concentration” value ([1]; mean) was 27 nM and the “11,12-DiHETE concentration” value ([1]; mean) was 1.0^* nM. The “11,12-DiHETrE concentration” value ([1]; mean) was 5.5^† nM, the 11-HDHA concentration ([1]; mean) was 2.8 nM and the 11-HETE concentration ([1]; mean) was 7.0 nM. The “12(13)-EpODE concentration” value ([1]; mean) was 3.9 nM, the “12(13)-EpOME concentration” value ([1]; mean) was 72 nM and the “12,13-DiHODE concentration” value ([1]; mean) was under 2.0 nM. The “12,13-DiHOME concentration” value ([1]; mean) was 45^‡ nM, the 12-HEPE concentration ([1]; mean) was 6.8 nM and the 12-HETE concentration ([1]; mean) was 32 nM. The “13(14)-EpDPE concentration” value ([1]; mean) was 12 nM, the “13,14-DiHDPE concentration” value ([1]; mean) was 1.6^‡ nM and the “13,14-dihydro-15-keto-PGE1 concentration” value ([1]; mean) was 0.62 nM. The “13,14-dihydro-15-keto-PGF2α concentration” value ([1]; mean) was 7.0 nM, the 13-HDHA concentration ([1]; mean) was 3.8 nM and the 13-HODE concentration ([1]; mean) was 230 nM. The 13-HOTrE concentration ([1]; mean) was 8.5 nM, the 13-oxo-ODE concentration ([1]; mean) was 9.4 nM and the “14(15)-EpETE concentration” value ([1]; mean) was 1.8 nM. For the same molecule, the “14(15)-EpETrE concentration” value ([1]; mean) was 21 nM, the “14,15-DiHETE concentration” value ([1]; mean) was 2.1^‡ nM and the “14,15-DiHETrE concentration” value ([1]; mean) was 12^‡ nM. The 14-HDHA concentration ([1]; mean) was 18 nM, the “15(16)-EpODE concentration” value ([1]; mean) was 12 nM and the “15(S)-HETrE concentration” value ([1]; mean) was 5.2 nM. For the same molecule, the “15,16-DiHODE concentration” value ([1]; mean) was 17^† nM, the 15-HEPE concentration ([1]; mean) was 1.7 nM and the 15-HETE concentration ([1]; mean) was 14 nM. The 15-oxo-ETE concentration ([1]; mean) was 2.8 nM, the “16(17)-EpDPE concentration” value ([1]; mean) was 11 nM and the “16,17-DiHDPE concentration” value ([1]; mean) was 3.0^‡ nM. The 16-HDHA concentration ([1]; mean) was 2.4 nM, the “17(18)-EpETE concentration” value ([1]; mean) was 3.2 nM and the “17,18-DiHETE concentration” value ([1]; mean) was 5.6^‡ nM. For the same molecule, the 17-HDHA concentration ([1]; mean) was 9.0 nM, the 18-HEPE concentration ([1]; mean) was 1.6 nM and the “19(20)-EpDPE concentration” value ([1]; mean) was 17 nM. For the same molecule, the “19,20-DiHDPE concentration” value ([1]; mean) was 17^‡ nM, the 20-HDHA concentration ([1]; mean) was 9.1^* nM and the 20-HEPE concentration ([1]; mean) was 4.1^‡ nM. For the same molecule, the 20-HETE concentration ([1]; mean) was under 2.6 nM, the EKODE concentration ([1]; mean) was 34 nM and the PGD1 concentration ([1]; mean) was 0.91 nM. It also gave a PGD2 concentration ([1]; mean) of 13 nM, a PGE1 concentration ([1]; mean) of 0.88 nM and a PGE2 concentration ([1]; mean) of 4.2 nM. For the same molecule, the PGF1α concentration ([1]; mean) was 2.5 nM, the TXB2 concentration ([1]; mean) was 8.4 nM and the TxB3 concentration ([1]; mean) was under 0.05 nM. For the same molecule, the dihomo-PGF2α concentration ([1]; mean) was 1.0 nM, the PGF2α concentration ([1]; mean (first listing, r6)) was 12 nM and the PGF2α concentration ([1]; mean (second listing, r9)) was 12 nM. The “effect on COX–1 dependent PGE2 formation, cell-free enzyme assay” value (ovine recombinant COX–1) was “dose-dependently decreased; also recorded: inhibited” and the IC50 (ovine recombinant COX–1; calculated based on PGE2, n = 3, read-out: IC50 (95% CI), COX–1 enzyme assay) was 1.6 µM.
